# Results taken from US20050100555A1, “Homing peptides” (KING'S COLLEGE LONDON An Institute Incorporated by Royal …, priority 2001, published 2005).
# “Also recorded” adds a separate entry of the source. No end group written: not given here.
# Columns and labels:
# [1] = tested on: human synovial grafts (cognate synovial MVE ligand); assay: Competitive localisation to human synovial grafts of synthetic biotinylated peptide against parent 3.1 phage clone; format: in vivo; conditions: for effect on graft localisation of the 3.1 phage clone: 50, 250 and 500 μg/mouse with 3.1 phage clone
# Procedure: (§1) Selection in vivo of synovial specific phage.
# (§2) Competitive localisation to human synovial grafts of synthetic biotinylated peptide […] against the parent 3.1 phage clone. SCID mice were transplanted with human synovial tissue and injected intravenously, as describe above for the in vivo selection experiments, with 1×10^11 tpfu of 3.1 phage clone in presence or absence of increasing concentrations of the biotinylated CKSTHRDLC synthetic peptide (50, 250 and 500 μg/mouse in 200 μL dose volume) or the biotinylated CGTWSHPQC synthetic peptide control. Controls also included animals injected with 1×10^11 pfu of strep-clone-1 or biotin alone. After 15 minutes circulation time, mice were perfused and the number of phage in the transplants determined as described above. Histological analysis was performed as described below.
# [2] = tested on: human microvascular endothelium in synovial grafts; assay: Assessment of graft localization of biotinylated peptides (ABC-AP immunohistology); format: in vivo; conditions: for localisation of biotinylated peptide to synovial grafts (immunoreactivity): 500 μg/mouse with 3.1 phage clone, ABC-AP, Vector Red
# Procedure: as §2
# Assessment of graft localization of biotinylated peptides. The graft localisation of the biotinylated CKSTHRDLC synthetic peptide was assessed by using the alkaline phosphatase avidin biotin complex (ABC-AP) detection system (Dako, UK) and visualised by Vector Red substrate (Novacastra, UK).
# human synovial grafts [3] = assay: Synovial homing of single phage clones in SCID mice transplanted with human synovium; format: in vivo; conditions: 1×10^11 pfu i.v., 15 minutes recirculation; for localization of phage clone to synovial grafts in comparison to strep-clone-1 phage control: SCID mice with human synovium grafts
# Procedure: as §1
# Confirmation of synovial homing specificity in single phage clones displaying consensus motifs. 1×10^11 pfu (200 μL saline fmal volume) of three single phage clones (1.23, 2.10 and 3.1) displaying consensus motifs or the strep-clone-1 phage control were and injected intravenously in separate animals transplanted with human synovium as described in ‘Selection in vivo ofsynovial specific phage’. The number of study and control clone phage localising to synovial grafts was determined as described in the same section.
# murine kidney = assay: Phage recovery from murine kidney in the competitive localisation experiment; format: in vivo, mouse; conditions: with or without study or control peptide
# Procedure: as §1, §2
# human synovial grafts [4] = conditions: 1×10^11 pfu i.v., double transplanted RA synovium and skin
# Procedure: Selection in vivo of synovial specific phage. Synovial homing phage were isolated by 3-4 cycles of enrichment in SCID mice transplanted with human tissues at 4-6 weeks of age. Four weeks post-transplantation the pep-PDL library (1×10^11 pfu in 200 μL saline final volume) was injected into the tail vein of anaesthetized animals. After 15 minutes (in vivo phage circulation time), while under deep/terminal anaesthesia (Sagatal, 5 μg/mouse, Rhone Merieux, France) the mice were perfused via the left ventricle with approximately 50-100 mL of saline to ensure phage clearance from the blood pool. Grafts and various mouse organs were then extracted and divided into two aliquots, weighed and processed as necessary for phage recovery and histological analysis. The aliquot assigned for immunohistology was embedded in Optimal Cutting Temperature compound (OCT, Miles, Calif.), snap frozen in liquid nitrogen cooled isopentane (BDH) and stored at −70° C. until analysis. The aliquot used for phage recovery was washed three times in TBS (150 mM NaCl, 50 nm Tris, pH7.4, Sigma, Poole, UK) then homogenized in 1 ml of TBS containing protease inhibitor cocktail (Sigma). […] After a 37° C. overnight incubation the peptide phage, appearing as blue plaques, were counted and the yield of phage localising to each individual tissue determined. […]
# [5] = tested on: human synovium and skin grafts (OA patient); conditions: OA synovium and skin double transplants, 15 min recirculation
# Procedure: To assess whether the synovial homing properties were due to the intrinsic characteristics of the synovium or related to the disease status (e.g. RA vs OA), pooled clones recovered from the last round of in vivo selection (3rd and 4th round of the experiments described above) were tested in recirculation studies in vivo using SCID animals double transplanted with skin and human synovium from a patient with OA. As previously, equivalent amounts of strep-clone-1 phage were injected intravenously into control animals.
substance,measurement,setting,value
"CKSTHDRLC (not fully specified; cysteine pairing not given here; also: biotinylated, site not given here)",effect on graft localisation of the 3.1 phage clone,[1],dramatically inhibits in a dose dependent fashion
same,inhibition of graft localisation of the parent 3.1 phage clone,"[1]; at maximal dose (500 μg/mouse i.v.), 15 minutes circulation",over 80%
same,site of peptide binding within synovial grafts (double staining with anti-human vWf-FITC),[2]; 500 μg/mouse,specific immunoreactivity co-localising with human vasculature; also recorded: binds principally to human microvascular endothelium
same,localisation of biotinylated peptide to synovial grafts (immunoreactivity),[2],strongly localises in vivo to synovial grafts
CDRLNHQFC [2.10],localization of phage clone to synovial grafts in comparison to strep-clone-1 phage control,human synovial grafts [3],significantly greater localization
CKSTHDRLC [3.1],increase of synovial graft localization over the control strep-clone-1 phage,human synovial grafts [3],approximately 10 fold
same,localization of phage clone to synovial grafts in comparison to strep-clone-1 phage control,human synovial grafts [3],significantly greater localization
same,graft localisation relative to strep-clone-1 control,"[1]; phage alone, 15 minutes circulation",approximately nine times more
same,level of phage localisation to murine kidney,murine kidney,only minimal ‘background’ localisation
C-G-T-W-S-H-P-Q-C [strep-clone-1],"localisation of phage to synovial grafts, skin grafts and mouse kidney",human synovial grafts [4],comparable low levels of localisation in all three tissues
same,number of phage recovered from synovial grafts versus skin grafts,[5],virtually the same
CTHSSATQC [1.23],localization of phage clone to synovial grafts in comparison to strep-clone-1 phage control,human synovial grafts [3],significantly greater localization
"CGTWSHPQC (cysteine pairing not given here; also: biotinylated, site not given here) [reference compound]",effect on graft localisation of the 3.1 phage clone,[1],no significant effect
same,localisation of biotinylated peptide to synovial grafts (immunoreactivity),[2],no specific immunoreactivity
